In ChEMBL document CHEMBL1140477 (Bioorg Med Chem, 2007) one finds IC50 data, which are given here for 14 molecules.

SMILES strings stand for the structures.

The test concerns the target T1, 3-hydroxy-3-methylglutaryl-coenzyme A reductase (Rattus norvegicus, UniProt P51639).
T1 sequence (P51639 whole entry): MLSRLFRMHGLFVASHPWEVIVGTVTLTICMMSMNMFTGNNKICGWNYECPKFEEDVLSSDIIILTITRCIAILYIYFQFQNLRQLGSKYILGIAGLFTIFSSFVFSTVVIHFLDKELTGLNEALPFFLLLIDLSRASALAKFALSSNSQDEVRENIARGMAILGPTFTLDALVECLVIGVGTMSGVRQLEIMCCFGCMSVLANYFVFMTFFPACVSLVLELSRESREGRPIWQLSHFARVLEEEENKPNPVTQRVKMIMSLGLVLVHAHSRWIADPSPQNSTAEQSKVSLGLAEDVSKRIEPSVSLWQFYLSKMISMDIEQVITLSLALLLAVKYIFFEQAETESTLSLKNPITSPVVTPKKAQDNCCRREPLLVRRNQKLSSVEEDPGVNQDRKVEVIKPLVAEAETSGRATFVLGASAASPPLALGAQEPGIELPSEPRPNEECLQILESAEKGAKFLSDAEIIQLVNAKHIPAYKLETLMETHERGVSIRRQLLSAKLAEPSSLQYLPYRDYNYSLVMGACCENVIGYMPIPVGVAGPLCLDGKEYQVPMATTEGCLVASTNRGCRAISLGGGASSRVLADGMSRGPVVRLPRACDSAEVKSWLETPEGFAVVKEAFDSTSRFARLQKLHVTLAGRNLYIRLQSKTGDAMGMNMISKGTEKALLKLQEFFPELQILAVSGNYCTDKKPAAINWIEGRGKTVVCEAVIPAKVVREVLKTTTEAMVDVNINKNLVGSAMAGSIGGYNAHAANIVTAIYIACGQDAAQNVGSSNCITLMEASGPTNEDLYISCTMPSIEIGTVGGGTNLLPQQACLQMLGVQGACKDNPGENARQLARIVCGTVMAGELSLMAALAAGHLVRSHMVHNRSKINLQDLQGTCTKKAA
The test can be described thus: Inhibition of Holtzman-Sprague-Dawley rat liver HMG CoA reductase after 30 mins.
For `O=C1C[C@H](O)C[C@@H](/C=C/c2cnc3cc(Sc4ccccc4)c(F)cc3c2Sc2ccccc2)O1`, 4.41 µM corresponded to half-maximal inhibition (IC50). The result for `COc1cccc(Sc2c(F)cc3c(Sc4cccc(OC)c4)c(/C=C/[C@@H]4C[C@@H](O)CC(=O)O4)cnc3c2Sc2cccc(OC)c2)c1` reads 74.6 µM; that for `O=C1C[C@H](O)C[C@@H](/C=C/c2cnc3ccccc3c2Sc2ccc(F)cc2)O1`, 18.6 µM; that for `CC(C)c1ccc(Sc2cc3ncc(/C=C/[C@@H]4C[C@@H](O)CC(=O)O4)c(Sc4ccc(C(C)C)cc4)c3cc2Sc2ccc(C(C)C)cc2)cc1`, 14.2 µM. The result for `CC(C)c1ccc(Sc2c(/C=C/[C@@H]3C[C@@H](O)CC(=O)O3)cnc3ccccc23)cc1` reads 12.7 µM; that for `CC(C)c1ccc(Sc2cc3c(Sc4ccc(C(C)C)cc4)c(/C=C/[C@@H]4C[C@@H](O)CC(=O)O4)cnc3c(Sc3ccc(C(C)C)cc3)c2Sc2ccc(C(C)C)cc2)cc1`, 4.35 µM; that for `COc1cccc(Sc2cc3ncc(/C=C/[C@@H]4C[C@@H](O)CC(=O)O4)c(Sc4cccc(OC)c4)c3cc2Sc2cccc(OC)c2)c1`, 15.4 µM. With `O=C1C[C@H](O)C[C@@H](/C=C/c2cnc3cc(Sc4ccccc4)c(Sc4ccccc4)cc3c2Sc2ccccc2)O1`, the IC50 worked out at 32.5 µM.

The molecule `O=C1C[C@H](O)C[C@@H](/C=C/c2cnc3cc(Sc4ccc(F)cc4)c(F)cc3c2Sc2ccc(F)cc2)O1` showed an IC50 of 38.9 µM.

In turn, `COc1cccc(Sc2c(F)cc3c(Sc4cccc(OC)c4)c(/C=C/[C@@H]4C[C@@H](O)CC(=O)O4)cnc3c2F)c1` registered an IC50 of 49.7 µM.

In turn, `CC(C)c1ccc(Sc2c(/C=C/[C@@H]3C[C@@H](O)CC(=O)O3)cnc3cc(Cl)c(F)cc23)cc1` gave a concentration for half-maximal inhibition (IC50) of 22.1 µM. In the case of `O=C1C[C@H](O)C[C@@H](/C=C/c2cnc3c(F)c(F)c(F)cc3c2Sc2ccccc2)O1` it was 10.7 µM.

`CC(C)c1ccc(Sc2ccc3c(Sc4ccc(C(C)C)cc4)c(/C=C/[C@@H]4C[C@@H](O)CC(=O)O4)cnc3c2)cc1` returned an IC50 of 15.8 µM. In the case of `O=C(O)C[C@H](O)C[C@H](O)/C=C/c1c(C2CC2)nc2ccccc2c1-c1ccc(F)cc1` [PITAVASTATIN CALCIUM] it was 10.6 µM.

As usually defined, the IC50 is the midpoint of a concentration-inhibition curve. Read a high IC50 as weaker potency in that assay.
